Measured values as given in PMC5584254, “Identification of novel small molecule Beclin 1 mimetics activating autophagy” (Oncotarget, 2017).
Counter-ions that a name gives are not always drawn. Like-named read-outs stand apart in the source and are kept apart here.

What was measured:
[1] = molecular target: T1, Bcl-xL-Beclin 1 complex (Homo sapiens, UniProt Q07817); assay: Concentration response FP reconfirmation of HTS hits; type: binding; settings: for inhibition at 5 µM: read-out: Dose-response (% Inhibition) 5 μM; for inhibition at 10 µM: read-out: Dose-response (% Inhibition) 10 μM; for inhibition at 20 µM: read-out: Dose-response (% Inhibition) 20 μM; for inhibition at 40 µM: read-out: Dose-response (% Inhibition) 40 μM; for inhibition at 80 µM: read-out: Dose-response (% Inhibition) 80 μM; for inhibition at 160 µM: read-out: Dose-response (% Inhibition) 160 μM
T1 construct: made in house
Experimental: (§1) Then the plates were read by Envision (Perkin Elmer, Waltham, MA). […] The hits were selected from library stocks and reconfirmed in a concentration response FP assay (6 doses ranging from 5 μM to 160 μM or 8 doses ranging from 0.5 μM to 60 μM).

[2] = molecular target: T1, Bcl-xL-Beclin 1 complex; assay: FP-based high-throughput screening, primary screen; type: binding; settings: first screen; 40 μM compound, 2.5 μM Bcl-xL, 400 nM 20-mer
Excerpt: Next, we optimized the FP competitive binding assay in a 384-well microplate format and carried out a small-scale HTS using a small library, which contains 6580 compounds from Prestwick, Microsource and our in-house CMLD library. Then, the FP assay was optimized and applied in screening the larger Chembridge library consisting of 43736 compounds. HTS cascades are shown in Supplementary Figure 1A–1B. […] All chemical structures can be found on the PubChem website (http://pubchem.ncbi.nlm.nih.gov/).
as §1

T1 sequence (Q07817 whole entry, one chain of several): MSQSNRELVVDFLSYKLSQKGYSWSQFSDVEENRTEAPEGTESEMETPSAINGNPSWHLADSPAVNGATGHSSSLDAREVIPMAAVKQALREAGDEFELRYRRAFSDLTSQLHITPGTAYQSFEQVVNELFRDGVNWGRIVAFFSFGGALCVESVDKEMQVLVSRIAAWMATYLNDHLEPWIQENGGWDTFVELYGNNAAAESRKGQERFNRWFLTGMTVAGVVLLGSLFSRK

SMILES: CC[N+](C)(CC)CCC[n+]1c(-c2ccccc2)c2cc(N)ccc2c2ccc(N)cc21.[I-].[I-] [Compound A40, PROPIDIUM IODIDE]
- Dose-response (% Inhibition) 5 μM ([1]; 5 μM, hits of first screen): 0.5%
- Dose-response (% Inhibition) 10 μM ([1]; 10 μM, hits of first screen): -0.2%
- Dose-response (% Inhibition) 20 μM ([1]; 20 μM, hits of first screen): 1.2%
- Dose-response (% Inhibition) 40 μM ([1]; 40 μM, hits of first screen): 4.4%
- Dose-response (% Inhibition) 80 μM ([1]; 80 μM, hits of first screen): 12.1%
- Dose-response (% Inhibition) 160 μM ([1]; 160 μM, hits of first screen): 18.3%
- Primary Screen % Inhibition [2]: 7.08%
- Primary Screen mP [2]: 123.6 mP

SMILES: CN(C)c1ccc(C(=C2C=CC(=[N+](C)C)C=C2)c2ccc(N(C)C)cc2)cc1 [Compound A08, GENTIAN VIOLET]
- inhibition at 5 µM ([1]; 5 μM, hits of first screen): 1.9%
- inhibition at 10 µM ([1]; 10 μM, hits of first screen): 3.7%
- inhibition at 20 µM ([1]; 20 μM, hits of first screen): 5.8%
- inhibition at 40 µM ([1]; 40 μM, hits of first screen): 6.6%
- inhibition at 80 µM ([1]; 80 μM, hits of first screen): 21.2%
- inhibition at 160 µM ([1]; 160 μM, hits of first screen): 22.7%
- Primary Screen mP [2]: 123.0 mP
- inhibition at 40 µM [2]: 11.7%

SMILES: CN1C[C@H](C(=O)N[C@]2(C)O[C@@]3(O)[C@@H]4CCCN4C(=O)[C@H](Cc4ccccc4)N3C2=O)C=C2c3cccc4[nH]cc(c34)C[C@H]21 [Compound A18, ERGOTAMINE TARTRATE]
- inhibition at 5 µM [1]: -0.2%
- inhibition at 10 µM [1]: 0.3%
- inhibition at 20 µM [1]: 3.3%
- inhibition at 40 µM [1]: 5.8%
- inhibition at 80 µM [1]: 15.6%
- inhibition at 160 µM [1]: 25.6%
- Primary Screen mP [2]: 122.3 mP
- inhibition at 40 µM [2]: 11%

SMILES: COc1cccc2c1C(=O)c1c(O)c3c(c(O)c1C2=O)C[C@@](O)(C(=O)CO)C[C@@H]3O[C@H]1C[C@H](N)[C@H](O)[C@H](C)O1 [Compound A25, DOXORUBICIN HYDROCHLORIDE]
- inhibition at 5 µM ([1]; 5 μM, hits of first screen): 18.9%
- inhibition at 10 µM ([1]; 10 μM, hits of first screen): 29.1%
- inhibition at 20 µM ([1]; 20 μM, hits of first screen): 36.5%
- inhibition at 40 µM ([1]; 40 μM, hits of first screen): 41.7%
- inhibition at 80 µM ([1]; 80 μM, hits of first screen): 48.6%
- inhibition at 160 µM ([1]; 160 μM, hits of first screen): 53.2%
- Primary Screen mP [2]: 75.9 mP
- inhibition at 40 µM [2]: 44%

SMILES: Cc1cc2c(C(C)C)c(O)c(O)c(C=O)c2c(O)c1-c1c(C)cc2c(C(C)C)c(O)c(O)c(C=O)c2c1O [Compound A38, GOSSYPOL]
- inhibition at 5 µM [1]: 2.7%
- inhibition at 10 µM [1]: 4.8%
- inhibition at 20 µM [1]: 5.4%
- inhibition at 40 µM [1]: 8.4%
- inhibition at 80 µM [1]: 14.7%
- inhibition at 160 µM [1]: 18.3%
- Primary Screen mP [2]: 125.4 mP
- inhibition at 40 µM [2]: 10.8%

SMILES: CC[n+]1c(-c2ccccc2)c2cc(N)ccc2c2ccc(N)cc21 [Compound A12, HOMIDIUM BROMIDE]
- inhibition at 5 µM [1]: 3.5%
- inhibition at 10 µM [1]: 5.5%
- inhibition at 20 µM [1]: 7.2%
- inhibition at 40 µM [1]: 12%
- inhibition at 80 µM [1]: 26.1%
- inhibition at 160 µM [1]: 39.2%
- Primary Screen mP [2]: 113.8 mP
- inhibition at 40 µM [2]: 15.3%

SMILES: O=C1c2cccc(O)c2C(=O)c2c(O)cccc21 [Compound A03, DANTHRON]
- inhibition at 5 µM ([1]; 5 μM, hits of first screen): -1.2%
- inhibition at 10 µM ([1]; 10 μM, hits of first screen): 1.4%
- inhibition at 20 µM ([1]; 20 μM, hits of first screen): 4.8%
- inhibition at 40 µM ([1]; 40 μM, hits of first screen): 4.9%
- inhibition at 80 µM ([1]; 80 μM, hits of first screen): 8.7%
- inhibition at 160 µM ([1]; 160 μM, hits of first screen): 19.7%
- Primary Screen mP [2]: 126.4 mP
- inhibition at 40 µM [2]: 9.62%

SMILES: OCCN(CCO)c1nc(N2CCCCC2)c2nc(N(CCO)CCO)nc(N3CCCCC3)c2n1 [Compound A22, DIPYRIDAMOLE]
- inhibition at 5 µM ([1]; 5 μM, hits of first screen): 10.1%
- inhibition at 10 µM ([1]; 10 μM, hits of first screen): 21%
- inhibition at 20 µM ([1]; 20 μM, hits of first screen): 35.1%
- inhibition at 40 µM ([1]; 40 μM, hits of first screen): 46.7%
- inhibition at 80 µM ([1]; 80 μM, hits of first screen): 62.9%
- inhibition at 160 µM ([1]; 160 μM, hits of first screen): 72.4%
- Primary Screen mP [2]: 72.7 mP
- inhibition at 40 µM [2]: 47.8%

SMILES: CCCCCCCCCc1ccc(OCCOCCOCCOCCOCCOCCOCCOCCOCCO)cc1 [Compound A17, NONOXYNOL-9]
- inhibition at 5 µM [1]: -0.3%
- inhibition at 10 µM [1]: 6.2%
- inhibition at 20 µM [1]: 5.9%
- inhibition at 40 µM [1]: 5.3%
- inhibition at 80 µM [1]: 12.9%
- inhibition at 160 µM [1]: 11.1%
- Primary Screen mP [2]: 127.2 mP
- inhibition at 40 µM [2]: 9.04%

SMILES: O=C1c2c(O)ccc(O)c2C(=O)c2c(NCCNCCO)ccc(NCCNCCO)c21 [Compound A11, MITOXANTRONE HYDROCHLORIDE]
- inhibition at 5 µM ([1]; 5 μM, hits of first screen): -2.2%
- inhibition at 10 µM ([1]; 10 μM, hits of first screen): 4.3%
- inhibition at 20 µM ([1]; 20 μM, hits of first screen): 11.2%
- inhibition at 40 µM ([1]; 40 μM, hits of first screen): 19.5%
- inhibition at 80 µM ([1]; 80 μM, hits of first screen): 32.9%
- inhibition at 160 µM ([1]; 160 μM, hits of first screen): 32.2%
- Primary Screen mP [2]: 99.8 mP
- inhibition at 40 µM [2]: 26.3%

SMILES: O=C(O)c1cc(O)c2c(c1)[C@@H]([C@H]1c3cc(C(=O)O)cc(O)c3C(=O)c3c(O[C@@H]4O[C@H](CO)[C@@H](O)[C@H](O)[C@H]4O)cccc31)c1cccc(O[C@@H]3O[C@H](CO)[C@@H](O)[C@H](O)[C@H]3O)c1C2=O [Compound A35, SENNOSIDE B]
- inhibition at 5 µM ([1]; 5 μM, hits of first screen): 2.7%
- inhibition at 10 µM ([1]; 10 μM, hits of first screen): 4.1%
- inhibition at 20 µM ([1]; 20 μM, hits of first screen): 5.8%
- inhibition at 40 µM ([1]; 40 μM, hits of first screen): 13.6%
- inhibition at 80 µM ([1]; 80 μM, hits of first screen): 21.1%
- inhibition at 160 µM ([1]; 160 μM, hits of first screen): 19.9%
- Primary Screen mP [2]: 120.4 mP
- inhibition at 40 µM [2]: 14.3%
